# Results reported in US4387059A, “Ureylenebis substituted (or unsubstituted) phenylene-carbonyl (or sulfonyl)-imino-1,3,5 or 6-naphthalene-trisulfonic acids and salts” (American Cyanamid Company, priority 1981, dated 1983).
# Structures can show the parent of a compound that is named as a salt.
# What was measured:
# [1] = system: late components of human complement (C3-C9); assay: Test Code 035 (C3-C9 inhibitor): lysis of EAC 142 by late components of human complement; format: cell-based; conditions: serial twofold dilution assay, higher well number indicates higher activity
# Excerpt: (§1) An active inhibitor protects C2 from C1 and C4; (ii) Test Code 035 (C3-C9 inhibitor)--This test determines the ability of the late components of human complement (C3-C9) to lyse EAC 142 in the presence of appropriate dilutions of the test compound. An active inhibitor protects EAC 142 from lysis by human C3-C9; (iii) Test Code 036 (C-Shunt inhibitor)--In this test human erythrocytes rendered fragile are lysed in autologous serum via the shunt pathway activated by cobra venom factor in the presence of appropriate dilutions of the test compound. Inhibition of the shunt pathway results in failure of lysis; (iv) Cap 50 Test--Here, appropriate amounts of the test compound are added to a pool of guinea pig serum in vitro, after which the complement level is determined in undiluted serum by the serum capillary tube assay of U.S. Pat. No. 3,876,376. The concentration of compound inhibiting 50% is reported; and (v) Guinea Pig Intraperitoneal Test (GPIP)--Guinea pigs weighing about 300 g are dosed intraperitoneally (i.p.) with 200 mg/kg of the test compound dissolved in saline and adjusted to pH 7-8. […] Percent inhibition is calculated by comparison with simultaneous controls. […]
# [2] = system: shunt pathway; assay: Test Code 036 (C-Shunt inhibitor): lysis of fragile human erythrocytes in autologous serum via shunt pathway activated by cobra venom factor; format: cell-based; conditions: serial twofold dilution assay, higher well number indicates higher activity
# Excerpt: as §1
# [3] = system: human C1; assay: Test Code 026 (C1 inhibitor): ability of activated human C1 to destroy fluid phase human C2 in the presence of C4; format: biochemical; conditions: serial twofold dilution assay, higher well number indicates higher activity
# Excerpt: as §1
# [4] = system: complement; assay: in vivo complement inhibition in guinea pig (GPIP test), capillary complement assay of sera; conditions: Intravenous, i.p. 200 mg/kg
# [5] = system: complement system; conditions: Br. J. Exp. Pathol. 33: 327 (1952); cited from earlier work
# [6] = system: total hemolytic complement activity (human serum); conditions: in vitro and in vivo, Pathol. Biol. 25 (1977); cited from earlier work
# [7] = literature reports; cited from earlier work
compound,measurement,setting,value
"O=C(Nc1cccc(S(=O)(=O)Nc2cccc(S(=O)(=O)Nc3cccc(S(=O)(=O)Nc4cc(S(=O)(=O)O)cc5cc(S(=O)(=O)O)cc(S(=O)(=O)O)c45)c3)c2)c1)Nc1cccc(S(=O)(=O)Nc2cccc(S(=O)(=O)Nc3cccc(S(=O)(=O)Nc4cc(S(=O)(=O)O)cc5cc(S(=O)(=O)O)cc(S(=O)(=O)O)c45)c3)c2)c1 [8,8'-[Ureylenebis[[[[[[[(m-phenylenesulfonyl)imino]-m-phenylene]sulfonyl]imino]-m-phenylene]sulfonyl]-imino]]-1,3,6-naphthalenetrisulfonic acid, hexasodium salt]",in vitro Activity C-Late 035* Wells,[1],+4 Wells
same,in vitro Activity C-Shunt Inhibition 036* Wells,[2],+1 Wells
same,in vitro Activity C1 026* Wells,[3],+4 Wells
"O=C(Nc1ccc(C(=O)Nc2ccc(C(=O)Nc3ccc(C(=O)Nc4cc(S(=O)(=O)O)cc5cc(S(=O)(=O)O)cc(S(=O)(=O)O)c45)c(S(=O)(=O)O)c3)c(S(=O)(=O)O)c2)c(S(=O)(=O)O)c1)Nc1ccc(C(=O)Nc2ccc(C(=O)Nc3ccc(C(=O)Nc4cc(S(=O)(=O)O)cc5cc(S(=O)(=O)O)cc(S(=O)(=O)O)c45)c(S(=O)(=O)O)c3)c(S(=O)(=O)O)c2)c(S(=O)(=O)O)c1 [8,8'-Ureylenebis[tris[(2-sulfo-p-phenylenecarbonyl)imino]]-di-1,3,6-naphthalenetrisulfonic acid, dodecasodium salt]",in vitro Activity C-Late 035* Wells,[1],+2 Wells
same,in vitro Activity C1 026* Wells,[3],+5 Wells
same,in vivo Activity (Guinea Pig) % Inhibition,[4]; Time 2 Minutes,95%
same,in vivo Activity (Guinea Pig) % Inhibition,[4]; Time 30 Minutes,54%
same,in vivo Activity (Guinea Pig) % Inhibition,[4]; Time 120 Minutes,14%
"Nc1ccc2cc(S(=O)(=O)[O-])cc(O)c2c1N=Nc1ccc(NC(=O)Nc2ccc(N=Nc3c(N)ccc4cc(S(=O)(=O)[O-])cc(O)c34)c(S(=O)(=O)[O-])c2)cc1S(=O)(=O)[O-].[Na+].[Na+].[Na+].[Na+] [chlorazol fast pink, 3,3'-ureylenebis[6-(2-amino-8-hydroxy-6-sulfo-1-naphthylazo)benzenesulfonic acid], tetrasodium salt]",anti-complementary effect,[5],anti-complementary effect
pentosanpolysulfoester,anticomplementary activity (reduction in total hemolytic complement activity),[6],"anticomplementary activity on human serum, both in vitro and in vivo"
NCCCCCC(=O)O [epsilon-aminocaproic acid],treatment of hereditary angioneurotic edema,[7],used with success in the treatment of hereditary angioneurotic edema
heparin,anti-complementary effect,[5],anti-complementary effect
NC[C@H]1CC[C@H](C(=O)O)CC1 [tranexamic acid],treatment of hereditary angioneurotic edema,[7],used with success in the treatment of hereditary angioneurotic edema
